Here are results for 44 compounds from patent US8716475B2, “2-aminopyrimidine modulators of the histamine H4 receptor” (Janssen Pharmaceutica NV, priority 2007, dated 2014).

Molecules are shown by their SMILES. Where a name gives a salt, the structure may show the parent alone.

The target of one assay is T1, human H4 receptor (Homo sapiens, UniProt Q9H3N8).
T1 construct: expressed in transfected cells
T1 sequence (Q9H3N8 whole entry): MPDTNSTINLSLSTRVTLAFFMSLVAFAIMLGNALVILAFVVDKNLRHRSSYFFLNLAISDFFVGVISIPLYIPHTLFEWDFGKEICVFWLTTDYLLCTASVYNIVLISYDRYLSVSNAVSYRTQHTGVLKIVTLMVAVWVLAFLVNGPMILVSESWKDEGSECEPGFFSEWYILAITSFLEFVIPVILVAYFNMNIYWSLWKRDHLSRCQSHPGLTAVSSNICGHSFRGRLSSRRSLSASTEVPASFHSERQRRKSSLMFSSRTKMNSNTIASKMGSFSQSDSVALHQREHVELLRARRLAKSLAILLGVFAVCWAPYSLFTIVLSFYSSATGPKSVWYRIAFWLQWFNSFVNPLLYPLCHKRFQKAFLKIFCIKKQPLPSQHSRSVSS
The experiment in a line: Binding Assay on Recombinant Human Histamine H4 Receptor. The following applies: Table 1; [3H] histamine competition binding, membranes of SK-N-MC cells transfected with human H4 receptor; average of results. Put shortly: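 Radioligand binding used membranes from SK-N-MC cells stably or transiently expressing human H4, prepared in 50 mM Tris/5 mM EDTA. Nonspecific binding was defined with 100 μM histamine. Bound radioactivity was counted after filtration on PEI-treated GF/C filters, and ">" values are the highest concentration tested.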
For `Nc1nc(C2CCC2)cc(N2CC3CCNC3C2)n1` (stereo not drawn) [Example 47, 4-Cyclobutyl-6-(cis-hexahydro-pyrrolo[3,4-b]pyrrol-5-yl)-pyrimidin-2-ylamine], the Ki stood at 11 nM. On the same count and under the same terms, under `Cc1nc(N)nc(N2CCNCC2)c1C` [Example 25, 4,5-Dimethyl-6-piperazin-1-yl-pyrimidin-2-ylamine] stands 286 nM. The same measure, in the same setting: then `CCc1cc(N2CC[C@@H](N)C2)nc(N)n1` [Example 35, (R)-4-(3-Amino-pyrrolidin-1-yl)-6-ethyl-pyrimidin-2-ylamine], with 21 nM; and `CN[C@@H]1CCN(c2cc(C)nc(N)n2)C1` [Example 23, (R)-4-Methyl-6-(3-methylamino-pyrrolidin-1-yl)-pyrimidin-2-ylamine], with 77 nM. The same measure, in the same setting: then `Nc1nc(C2CCC2)cc(N2CC3CCCNC3C2)n1` (stereo not drawn) [Example 50, 4-Cyclobutyl-6-(cis-octahydro-pyrrolo[3,4-b]pyridin-6-yl)-pyrimidin-2-ylamine], with 3 nM; and `Nc1nc2c(c(N3C[C@H]4CCCN[C@H]4C3)n1)CCCC2` [Example 72, (R,R)-4-(Octahydro-pyrrolo[3,4-b]pyridin-6-yl)-5,6,7,8-tetrahydro-quinazolin-2-ylamine], with 14 nM.

Regarding `CNC1CN(c2cc(C(C)C)nc(N)n2)CC1O` (stereo not drawn) [Example 13, trans-1-(2-Amino-6-isopropyl-pyrimidin-4-yl)-4-methylamino-pyrrolidin-3-ol], the Ki is 631 nM. As to `CN[C@@H]1CCN(c2cc(C3CCC3)nc(N)n2)C1` [Example 46, (R)-4-Cyclobutyl-6-(3-methylamino-pyrrolidin-1-yl)-pyrimidin-2-ylamine], the Ki was 2 nM. Consider `CN1CCN(c2cc(C3CC3)nc(N)n2)CC1` [Example 40, 4-Cyclopropyl-6-(4-methyl-piperazin-1-yl)-pyrimidin-2-ylamine], for which the Ki stood at 8 nM. Same read-out and setting: under `CN1CCN(c2cc(C3CCCCC3)nc(N)n2)CC1` [Example 52, 4-Cyclohexyl-6-(4-methyl-piperazin-1-yl)-pyrimidin-2-ylamine] stands 3 nM; under `Nc1nc(C2CCCC2)cc(N2CCC[C@@H](N)C2)n1` [Example 3, (R)-4-(3-Amino-piperidin-1-yl)-6-cyclopentyl-pyrimidin-2-ylamine], 257 nM.

Turning to `CN1CCN(c2cc(C3CCC3)nc(N)n2)CC1` [Example 44, 4-Cyclobutyl-6-(4-methyl-piperazin-1-yl)-pyrimidin-2-ylamine], the Ki is 1 nM.

Regarding `Nc1nc(C2CCCC2)cc(N2CC3CCNC3C2)n1` (stereo not drawn) [Example 6, 4-Cyclopentyl-6-(cis-hexahydro-pyrrolo[3,4-b]pyrrol-5-yl)-pyrimidin-2-ylamine], the Ki came out at 6 nM. Same read-out and setting: then `CN[C@@H]1CCN(c2nc(N)nc3c2CCC3)C1` [Example 75, (R)-4-(3-Methylamino-pyrrolidin-1-yl)-6,7-dihydro-5H-cyclopentapyrimidin-2-ylamine], with 159 nM.

Staying with this assay, now noted: Table 2, data marked with an asterisk (*): obtained by the cell harvester method; [3H] histamine competition binding, SK-N-MC membranes.
For the compound `COc1c(C2CCCC2)nc(N)nc1N(C)CCN` [Example 115, N^4-(2-Amino-ethyl)-6-cyclopentyl-5-methoxy-N^4-methyl-pyrimidine-2,4-diamine], the Ki worked out at 1430 nM.

The assay is the same for the next values; noted with them: Table 2; [3H] histamine competition binding, membranes of SK-N-MC cells transfected with human H4 receptor; average of results.
On to `NCCNc1cc(Cc2ccsc2)nc(N)n1` [Example 212, N^4-(2-Amino-ethyl)-6-thiophen-3-ylmethyl-pyrimidine-2,4-diamine], for which the Ki amounted to 12 nM. Consider `CCOCc1cc(N2CC[C@@H](N)C2)nc(N)n1` [Example 242, (R)-Ethoxymethyl-6-(3-amino-pyrrolidin-1-yl)-pyrimidin-2-ylamine], for which the Ki amounted to 22 nM.

With `CN1CCN(c2nc(N)nc3c2COCC3)CC1` [Example 96, 4-(4-Methyl-piperazin-1-yl)-7,8-dihydro-5H-pyrano[4,3-d]pyrimidin-2-ylamine], the Ki worked out at 35 nM. Turning to `Nc1nc(C2CCCC2)cc(N2CCC3(CCCN3)C2)n1` (racemic) [Example 84, 4-Cyclopentyl-6-(cis-1,7-diaza-spiro[4.4]non-7-yl)-pyrimidin-2-ylamine], the Ki was determined as 11 nM. Same read-out and setting: under `CN1C[C@@H]2CN(c3cc(C(C)(C)C)nc(N)n3)C[C@@H]2C1` [Example 128, 4-tert-Butyl-6-(cis-5-methyl-hexahydro-pyrrolo[3,4-c]pyrrol-2-yl)-pyrimidin-2-ylamine] stands 19 nM. `Nc1nc(CCC(F)(F)F)cc(N2CC[C@@H](N)C2)n1` [Example 184, (R)-4-(3-Amino-pyrrolidin-1-yl)-6-(3,3,3-trifluoro-propyl)-pyrimidin-2-ylamine]: the Ki amounted to 13 nM.

Turning to `Nc1nc(Cc2ccsc2)cc(N2CC[C@@H](N)C2)n1` [Example 210, (R)-4-(3-Amino-pyrrolidin-1-yl)-6-thiophen-3-ylmethyl-pyrimidin-2-ylamine], the Ki was 12 nM. Turning to `Nc1nc(C2Cc3ccccc3O2)cc(N2CCNCC2)n1` (centres unmarked) [Example 171, 4-(2,3-Dihydro-benzofuran-2-yl)-6-piperazin-1-yl-pyrimidin-2-ylamine], the Ki was 106 nM. On the same count and under the same terms, then `Nc1nc(C2Cc3ccccc3C2)cc(N2C[C@H]3CNC[C@H]3C2)n1` [Example 173, 4-(cis-Hexahydro-pyrrolo[3,4-c]pyrrol-2-yl)-6-indan-2-yl-pyrimidin-2-ylamine], with 2070 nM; and `CC(C)c1cc(N2CC3NCCOC3C2)nc(N)n1` (single isomer, unassigned) [Example 94, 4-(trans-Hexahydro-pyrrolo[3,4-b][1,4]oxazin-6-yl)-6-isopropyl-pyrimidin-2-ylamine], with 497 nM; and `COc1c(C2CCCC2)nc(N)nc1N1C[C@H]2CCCN[C@H]2C1` [Example 188, (R,R)-4-Cyclopentyl-5-methoxy-6-(octahydro-pyrrolo[3,4-b]pyridin-6-yl)-pyrimidin-2-ylamine], with 18 nM. As for `CC(C)c1cc(N(C)CCN)nc(N)n1` [Example 92, N^4-(2-Amino-ethyl)-6-isopropyl-N^4-methyl-pyrimidine-2,4-diamine], the Ki worked out at 281 nM. On the same count and under the same terms, then `Nc1nc(C2Cc3ccccc3C2)cc(N2CC(N)C2)n1` [Example 161, 4-(3-Amino-azetidin-1-yl)-6-indan-2-yl-pyrimidin-2-ylamine salt], with 24 nM; and `Nc1nc(CCc2ccccc2)cc(N2CCNCC2)n1` [Example 247, 4-Phenethyl-6-piperazin-1-yl-pyrimidin-2-ylamine], with 3 nM; and `CC(C)(C)c1cc(N2CC[C@@H](N)C2)nc(N)n1` [Example 127, (R)-4-(3-Amino-pyrrolidin-1-yl)-6-tert-butyl-pyrimidin-2-ylamine], with 9 nM. The same measure, in the same setting: then `CN[C@@H]1CCN(c2nc(N)nc(C3CCCC3)c2OC)C1` [Example 187, (R)-4-Cyclopentyl-5-methoxy-6-(3-methylamino-pyrrolidin-1-yl)-pyrimidin-2-ylamine], with 10 nM; and `CN1C[C@@H]2CN(c3nc(N)nc4c3COCC4)C[C@@H]2C1` [Example 254, 4-(cis-5-Methyl-hexahydro-pyrrolo[3,4-c]pyrrol-2-yl)-7,8-dihydro-5H-pyranol-[4,3-d]pyrimidin-2-ylamine], with more than 10000 nM; and `COc1c(NCCN)nc(N)nc1C1CCCC1` [Example 116, N^4-(2-Amino-ethyl)-6-cyclopentyl-5-methoxy-pyrimidine-2,4-diamine], with 64 nM. `CN[C@@H]1CCN(c2cc(C3Cc4ccccc4O3)nc(N)n2)C1` (stereo partly drawn) [Example 169, (R)-4-(2,3-Dihydro-benzofuran-2-yl)-6-(3-methylamino-pyrrolidin-1-yl)-pyrimidin-2-ylamine]: the Ki is 396 nM.

Consider `Nc1nc(CCC(F)(F)F)cc(N2CCNCC2)n1` [Example 182, 4-piperazin-1-yl-6-(3,3,3-trifluoro-propyl)-pyrimidin-2-ylamine], for which the Ki turned out to be 20 nM. As for `COCc1cc(N2CC[C@@H](N)C2)nc(N)n1` [Example 222, (R)-4-(3-Amino-pyrrolidin-1-yl)-6-methoxymethyl-pyrimidin-2-ylamine], the Ki was found to be 23 nM.

For the compound `Nc1nc(C2CC2)cc(N2CC[C@@H](N)C2)n1` [Example 123, (R)-4-(3-Amino-pyrrolidin-1-yl)-6-cyclopropyl-pyrimidin-2-ylamine], the Ki amounted to 4 nM. As for `CN1CCN(c2cc(CCc3ccccc3)nc(N)n2)CC1` [Example 179, 4-(4-Methyl-piperazin-1-yl)-6-phenethyl-pyrimidin-2-ylamine], the Ki amounted to 6 nM. With `CC(C)c1cc(N2CC[C@H](N)C2)nc(N)n1` [Example 126, (S)-4-(3-Amino-pyrrolidin-1-yl)-6-isopropyl-pyrimidin-2-ylamine], the Ki was found to be 23 nM. As for `Nc1nc(C2CC2c2ccccc2)cc(N2CC[C@@H](N)C2)n1` (stereo in doubt) [Example 157, (R)-4-(3-Amino-pyrrolidin-1-yl)-6-(trans-2-phenyl-cyclopropyl)-pyrimidin-2-ylamine], the Ki was 29 nM.

Regarding `CC1(c2cc(N3CC[C@@H](N)C3)nc(N)n2)CCOCC1` [Example 174, (R)-4-(3-Amino-pyrrolidin-1-yl)-6-(4-methyl-tetrahydro-pyran-4-yl)-pyrimidin-2-ylamine], the Ki worked out at 138 nM. Same read-out and setting: under `CC(C)OCc1cc(N2CCN(C)CC2)nc(N)n1` [Example 246, 4-Isopropoxymethyl-6-(4-methyl-piperazin-1-yl)-pyrimidin-2-ylamine] stands 32 nM. The same measure, in the same setting: under `Nc1nc(Cc2ccsc2)cc(N2CC3CCCNC3C2)n1` (stereo not drawn) [Example 211, 4-(cis-Octahydro-pyrrolo[3,4-b]pyridin-6-yl)-6-thiophen-3-ylmethyl-pyrimidin-2-ylamine] stands 4 nM; under `NCCNc1cc(Cc2cccs2)nc(N)n1` [Example 218, N^4-(2-Amino-ethyl)-6-thiophen-2-ylmethyl-pyrimidine-2,4-diamine], 20 nM.

By Ki is commonly meant a measure of affinity in units of concentration, obtained from inhibition or displacement.
